From patent US11135234B2, “Effective aminoglycoside antibiotic for multidrug-resistant bacteria” (MICROBIAL CHEMISTRY RESEARCH FOUNDATION, priority 2015, dated 2021)
In brackets after ≈: the same amount, converted by molar mass.

Experiments:
S. aureus RN4220 = assay: MIC, agar plate dilution method, S. aureus RN4220; type: cell-based, Staphylococcus aureus; conditions: for MIC: Staphylococcus aureus, RN4220, S. aureus RN4220, Sensitive bacterium, read-out: minimal inhibitory concentration (MIC); for minimal inhibitory concentration (MIC): S. aureus RN4220, Sensitive bacterium
Protocol: (§1) As for the representative compounds of a new aminoglycoside antibiotic of the present invention described in Examples, the minimal inhibitory concentration (MIC, μg/mL) was measured for various assay strains of bacteria using an agar plate dilution method in accordance with the method described in the Japan Society of Chemotherapy.

S. aureus RN4220/pMS520 = assay: MIC, agar plate dilution method, S. aureus RN4220/pMS520; type: cell-based, Staphylococcus aureus; conditions: for MIC: Staphylococcus aureus, MRSA, read-out: minimal inhibitory concentration (MIC), S. aureus RN4220/pMS520, MRSA; for minimal inhibitory concentration (MIC): S. aureus RN4220/pMS520, MRSA
Protocol: as §1

S. aureus MF490 = assay: MIC, agar plate dilution method, S. aureus MF490; type: cell-based, Staphylococcus aureus; conditions: for MIC: Staphylococcus aureus, MRSA, read-out: minimal inhibitory concentration (MIC); for minimal inhibitory concentration (MIC): S. aureus MF490, MRSA
Protocol: as §1

E. faecium ATCC19434 = assay: MIC, agar plate dilution method, E. faecium ATCC19434; type: cell-based, Enterococcus faecium; conditions: for MIC: Enterococcus faecium, ATCC19434, E. faecium ATCC19434, read-out: minimal inhibitory concentration (MIC); for minimal inhibitory concentration (MIC): E. faecium ATCC19434
Protocol: as §1

E. coli JM109/pMW218 = assay: MIC, agar plate dilution method, E. coli JM109/pMW218; type: cell-based, Escherichia coli; conditions: for MIC: Escherichia coli, JM109/PMW218, E. coli JM109/pMW218, Sensitive bacterium, read-out: minimal inhibitory concentration (MIC); for minimal inhibitory concentration (MIC): E. coli JM109/pMW218, Sensitive bacterium
Protocol: as §1

[1] = tested on: K. pneumoniae ATCC BAA-1705; assay: MIC, agar plate dilution method, K. pneumoniae ATCC BAA-1705; type: cell-based, Klebsiella pneumoniae; conditions: for MIC: Klebsiella pneumoniae, ATCCBAA1705, K. pneumoniae ATCC BAA-1705, KPC-producing strain, read-out: minimal inhibitory concentration (MIC); for minimal inhibitory concentration (MIC): K. pneumoniae ATCC BAA-1705, KPC-producing strain
Protocol: as §1

[2] = tested on: K. pneumoniae ATCC BAA-2146; assay: MIC, agar plate dilution method, K. pneumoniae ATCC BAA-2146; type: cell-based, Klebsiella pneumoniae; conditions: for MIC: Klebsiella pneumoniae, ATCCBAA2146, K. pneumoniae ATCC BAA-2146, NDM-producing strain, read-out: minimal inhibitory concentration (MIC); for minimal inhibitory concentration (MIC): K. pneumoniae ATCC BAA-2146, NDM-producing strain
Protocol: as §1

[3] = tested on: A. baumannii ATCC BAA-1710; assay: MIC, agar plate dilution method, A. baumannii ATCC BAA-1710; type: cell-based, Acinetobacter baumannii; conditions: for MIC: Acinetobacter baumannii, ATCCBAA1710, A. baumannii ATCC BAA-1710, MDRA, read-out: minimal inhibitory concentration (MIC); for minimal inhibitory concentration (MIC): A. baumannii ATCC BAA-1710, MDRA
Protocol: as §1

S. marcescens TH-0447 = assay: MIC, agar plate dilution method, S. marcescens TH-0447; type: cell-based, Serratia marcescens; conditions: for MIC: Serratia marcescens, TH0447, S. marcescens TH-0447, AMK-resistant, read-out: minimal inhibitory concentration (MIC); for minimal inhibitory concentration (MIC): S. marcescens TH-0447, AMK-resistant
Protocol: as §1

S. marcescens GN6944 = assay: MIC, agar plate dilution method, S. marcescens GN6944; type: cell-based, Serratia marcescens; conditions: S. marcescens GN6944, GM-resistant; for MIC: Serratia marcescens, read-out: minimal inhibitory concentration (MIC)
Protocol: as §1

P. aeruginosa PAO1 = assay: MIC, agar plate dilution method, P. aeruginosa PAO1; type: cell-based, Pseudomonas aeruginosa; conditions: for MIC: Pseudomonas aeruginosa, PAO1, P. aeruginosa PAO1, Sensitive bacterium, read-out: minimal inhibitory concentration (MIC); for minimal inhibitory concentration (MIC): P. aeruginosa PAO1, Sensitive bacterium
Protocol: as §1

P. aeruginosa PAO1/GN315 = assay: MIC, agar plate dilution method, P. aeruginosa PAO1/GN315; type: cell-based, Pseudomonas aeruginosa; conditions: for MIC: Pseudomonas aeruginosa, read-out: minimal inhibitory concentration (MIC), P. aeruginosa PAO1/GN315, AMK-resistant; for minimal inhibitory concentration (MIC): P. aeruginosa PAO1/GN315, AMK-resistant
Protocol: as §1

P. aeruginosa MSC17707 = assay: MIC, agar plate dilution method, P. aeruginosa MSC17707; type: cell-based, Pseudomonas aeruginosa; conditions: for MIC: Pseudomonas aeruginosa, MSC17707, P. aeruginosa MSC17707, AMK-resistant, read-out: minimal inhibitory concentration (MIC); for minimal inhibitory concentration (MIC): P. aeruginosa MSC17707, AMK-resistant
Protocol: as §1

P. aeruginosa MSC01035 = assay: MIC, agar plate dilution method, P. aeruginosa MSC01035; type: cell-based, Pseudomonas aeruginosa; conditions: P. aeruginosa MSC01035, ABK-resistant; for MIC: Pseudomonas aeruginosa, read-out: minimal inhibitory concentration (MIC)
Protocol: as §1

SMILES	MIC (S. aureus RN4220) [µg/mL]	MIC (S. aureus RN4220/pMS520) [µg/mL]	MIC (S. aureus MF490) [µg/mL]	MIC (E. faecium ATCC19434) [µg/mL]	MIC (E. coli JM109/pMW218) [µg/mL]	MIC [1] [µg/mL]	MIC [2] [µg/mL]	MIC [3] [µg/mL]	MIC (S. marcescens TH-0447) [µg/mL]	MIC (S. marcescens GN6944) [µg/mL]	MIC (P. aeruginosa PAO1) [µg/mL]	MIC (P. aeruginosa PAO1/GN315) [µg/mL]	MIC (P. aeruginosa MSC17707) [µg/mL]	MIC (P. aeruginosa MSC01035) [µg/mL]	minimal inhibitory concentration (MIC) (S. aureus RN4220) [µg/mL]	minimal inhibitory concentration (MIC) (S. aureus RN4220/pMS520) [µg/mL]	minimal inhibitory concentration (MIC) (S. aureus MF490) [µg/mL]	minimal inhibitory concentration (MIC) (E. faecium ATCC19434) [µg/mL]	minimal inhibitory concentration (MIC) (E. coli JM109/pMW218) [µg/mL]	minimal inhibitory concentration (MIC) [1] [µg/mL]	further results
CNC1C(O[C@H]2OC(CO)[C@@H](NCCCN)[C@H](O)C2O)O[C@H]2CC(N)[C@@H](O[C@@H]3C(N)C[C@@H](N)C(O)[C@H]3O)OC2C1O (stereo partly shown) [Compound A4-b, 4″-N-(3-aminopropyl)apramycin]	4 (≈ 6.7 µM)	4 (≈ 6.7 µM)	8 (≈ 13.4 µM)	16 (≈ 26.8 µM)	2 (≈ 3.35 µM)	2 (≈ 3.35 µM)	2 (≈ 3.35 µM)	8 (≈ 13.4 µM)	8 (≈ 13.4 µM)	8 (≈ 13.4 µM)	4 (≈ 6.7 µM)	8 (≈ 13.4 µM)	8 (≈ 13.4 µM)	8 (≈ 13.4 µM)	–	–	–	–	–	–	–
CNCC(=O)N[C@@H]1C(CO)O[C@H](OC2O[C@H]3CC(N)[C@@H](O[C@@H]4C(N)C[C@@H](N)C(O)[C@H]4O)OC3C(O)C2NC)C(O)[C@H]1O (stereo partly shown) [Compound V1-b, 4″-N-sarcosylapramycin]	2 (≈ 3.28 µM)	2 (≈ 3.28 µM)	8 (≈ 13.1 µM)	16 (≈ 26.2 µM)	1 (≈ 1.64 µM)	2 (≈ 3.28 µM)	1 (≈ 1.64 µM)	8 (≈ 13.1 µM)	16 (≈ 26.2 µM)	8 (≈ 13.1 µM)	4 (≈ 6.55 µM)	4 (≈ 6.55 µM)	4 (≈ 6.55 µM)	4 (≈ 6.55 µM)	–	–	–	–	–	–	–
CNC1C(CO)OC(OC2OC3CC(N)C(OC4C(N)CC(N)CC4O)OC3C(O)C2NC)C(O)C1O (stereo not drawn) [Compound S1-l, 6-deoxy-5-epi-4″-N-methylapramycin]	–	–	–	–	–	–	–	–	–	–	–	–	–	–	2 (≈ 3.72 µM)	1 (≈ 1.86 µM)	8 (≈ 14.9 µM)	16 (≈ 29.8 µM)	0.5 (≈ 0.93 µM)	1 (≈ 1.86 µM)	minimal inhibitory concentration (MIC) [2]: 0.5 µg/mL (≈ 0.93 µM); minimal inhibitory concentration (MIC) [3]: 4 µg/mL (≈ 7.44 µM); minimal inhibitory concentration (MIC) (S. marcescens TH-0447): 4 µg/mL (≈ 7.44 µM); minimal inhibitory concentration (MIC) (S. marcescens GN6944): 2 µg/mL (≈ 3.72 µM); minimal inhibitory concentration (MIC) (P. aeruginosa PAO1): 4 µg/mL (≈ 7.44 µM); minimal inhibitory concentration (MIC) (P. aeruginosa PAO1/GN315): 4 µg/mL (≈ 7.44 µM); minimal inhibitory concentration (MIC) (P. aeruginosa MSC17707): 4 µg/mL (≈ 7.44 µM); minimal inhibitory concentration (MIC) (P. aeruginosa MSC01035): 4 µg/mL (≈ 7.44 µM)
CN[C@@H]1[C@@H](O[C@H]2O[C@H](C)[C@@H](N)C[C@H]2O)O[C@H]2C[C@@H](N)[C@@H](O[C@H]3[C@H](O)[C@@H](O)[C@H](N)C[C@@H]3N)O[C@@H]2[C@@H]1O [Compound K4, 3″,6″-dideoxyapramycin]	–	–	–	–	–	–	–	–	–	–	–	–	–	–	2 (≈ 3.94 µM)	2 (≈ 3.94 µM)	8 (≈ 15.8 µM)	8 (≈ 15.8 µM)	1 (≈ 1.97 µM)	2 (≈ 3.94 µM)	minimal inhibitory concentration (MIC) [2]: 1 µg/mL (≈ 1.97 µM); minimal inhibitory concentration (MIC) [3]: 16 µg/mL (≈ 31.5 µM); minimal inhibitory concentration (MIC) (S. marcescens TH-0447): 8 µg/mL (≈ 15.8 µM); minimal inhibitory concentration (MIC) (S. marcescens GN6944): 4 µg/mL (≈ 7.88 µM); minimal inhibitory concentration (MIC) (P. aeruginosa PAO1): 8 µg/mL (≈ 15.8 µM); minimal inhibitory concentration (MIC) (P. aeruginosa PAO1/GN315): 8 µg/mL (≈ 15.8 µM); minimal inhibitory concentration (MIC) (P. aeruginosa MSC17707): 16 µg/mL (≈ 31.5 µM); minimal inhibitory concentration (MIC) (P. aeruginosa MSC01035): 16 µg/mL (≈ 31.5 µM)
CNC1C(O[C@H]2OC(C)[C@@H](NC(=N)N)[C@H](O)C2O)O[C@H]2CC(N)[C@@H](O[C@H]3CC(O)[C@H](N)CC3N)OC2C1O (stereo partly shown) [Compound S1-q, 4″-deamino-5,6″-dideoxy-4″-guanidinoapramycin]	1 (≈ 1.82 µM)	1 (≈ 1.82 µM)	4 (≈ 7.28 µM)	4 (≈ 7.28 µM)	0.5 (≈ 0.91 µM)	1 (≈ 1.82 µM)	0.5 (≈ 0.91 µM)	16 (≈ 29.1 µM)	4 (≈ 7.28 µM)	4 (≈ 7.28 µM)	4 (≈ 7.28 µM)	8 (≈ 14.6 µM)	8 (≈ 14.6 µM)	8 (≈ 14.6 µM)	–	–	–	–	–	–	–
